Assay results: ChEMBL document CHEMBL1201862, “PubChem BioAssay data set” (2004)
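Assay format: 96-well plates, 48-hour exposure. GI50 is the concentration that inhibits growth by half.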 Active and inactive are the calls of the source. No stated cut-off is given here; in the data, active = GI50 up to about 1.1 µM and inactive = higher.

What was measured:
Test in all cases: inhibition of tumour cell growth, NCI panel, 48 h
[1] = test system: HCC 2998
[2] = test system: TK-10
[3] = test system: HT-29
[4] = test system: SW-620
[5] = test system: COLO 205
[6] = test system: SF-539
[7] = test system: A549
[8] = test system: OVCAR-3
[9] = test system: IGROV-1
[10] = test system: HOP-62
[11] = test system: K562
[12] = test system: OVCAR-5
[13] = test system: KM12
[14] = test system: RXF 393
[15] = test system: UACC-257
[16] = test system: SF-268
[17] = test system: ACHN
[18] = test system: MDA-N

Measured: GI50

N=C(N)N/N=C/c1c(-c2cc([N+](=O)[O-])c(Cl)cc2Cl)nc2n1CCS2
inactive: [1] 2.55 µM | [2] 15.5 µM | [3] 7.08 µM | [4] 3.97 µM | [5] 2.66 µM | [6] 42.5 µM | [7] 32.7 µM | [8] 8.04 µM | [9] 16.4 µM | [10] 42.4 µM | [11] 2.88 µM | [12] 79.3 µM | [13] 4.83 µM | [14] 41.5 µM | [15] 20.7 µM | [16] 9.93 µM | [17] 22.4 µM

N#Cc1c2ccc([N+](=O)[O-])cc2c(=O)n2c1sc1ccc(C(F)(F)F)cc12
inactive: [2] > 100 µM | [3] > 100 µM | [4] > 100 µM | [5] > 100 µM | [6] > 100 µM | [7] > 100 µM | [8] > 100 µM | [9] > 100 µM | [10] > 100 µM | [11] > 100 µM | [12] > 100 µM | [13] > 100 µM | [14] > 100 µM | [15] > 100 µM | [16] > 100 µM | [17] > 100 µM

COCCOC(=O)NCn1cc(-c2ccccc2)nn1
inactive: [1] > 100 µM | [2] > 100 µM | [3] > 100 µM | [4] > 100 µM | [5] > 100 µM | [6] > 100 µM | [7] > 100 µM | [9] > 100 µM | [10] > 100 µM | [11] > 100 µM | [12] > 100 µM | [13] > 100 µM | [15] > 100 µM | [17] > 100 µM

COc1cc(C2c3cc4c(cc3C3OC[C@@H]2C3CO)OCO4)cc(OC)c1OC (stereo not given in full)
inactive: [2] 37.5 µM | [3] 28.4 µM | [4] 34 µM | [5] 18.4 µM | [7] 44.7 µM | [9] 43.1 µM | [11] 24.9 µM | [12] 60.5 µM | [13] 23 µM | [14] 37.6 µM | [15] 18.2 µM | [16] 31.3 µM | [17] 80.4 µM | [18] 8.28 µM

N#Cc1c2c(c(Nc3cccc(C(F)(F)F)c3)n3c1nc1ccccc13)CCCC2
inactive: [2] 16.3 µM | [3] 16.2 µM | [4] 39.1 µM | [5] > 100 µM | [6] 16.3 µM | [8] 14.6 µM | [10] 16 µM | [12] 18.9 µM | [13] 81.3 µM | [14] 22.7 µM | [15] 22.2 µM | [16] 15.2 µM | [17] 27.3 µM | [18] 15 µM

c1ccc(COC2NCCN2Cc2ccccc2)cc1 (stereo not given)
inactive: [2] > 100 µM | [3] > 100 µM | [4] > 100 µM | [5] > 100 µM | [6] > 100 µM | [7] > 100 µM | [8] > 100 µM | [9] > 100 µM | [10] > 100 µM | [11] > 100 µM | [12] > 100 µM | [13] > 100 µM | [14] > 100 µM | [15] 61 µM | [16] > 100 µM | [17] > 100 µM | [18] > 100 µM

COc1cc(Cl)c(CC(=O)c2c[nH]c3ccccc23)cc1OC
inactive: [2] 16.9 µM | [3] > 100 µM | [4] > 100 µM | [5] > 100 µM | [6] 6.22 µM | [7] > 100 µM | [8] > 51.9 µM | [9] 32.4 µM | [10] 5.3 µM | [11] > 49.2 µM | [12] > 100 µM | [13] > 100 µM | [14] 12.3 µM | [15] > 100 µM | [16] 13.7 µM | [17] 8.55 µM | [18] > 100 µM

O=C1CCN2C(=N1)Sc1ccccc12
inactive: [2] > 100 µM | [3] > 100 µM | [4] > 100 µM | [5] > 100 µM | [6] > 100 µM | [7] > 100 µM | [8] > 100 µM | [9] > 100 µM | [10] > 100 µM | [11] > 100 µM | [12] > 100 µM | [13] > 100 µM | [14] > 100 µM | [15] > 100 µM | [16] > 100 µM | [17] > 100 µM | [18] > 100 µM

O=C(c1ccco1)N1CCCN(C(=O)c2ccco2)C1=S
inactive: [2] > 100 µM | [3] > 100 µM | [4] > 100 µM | [5] > 100 µM | [6] 29.4 µM | [8] > 100 µM | [9] 41.6 µM | [10] 72.1 µM | [11] > 100 µM | [12] > 100 µM | [13] 82 µM | [14] 39.6 µM | [15] > 100 µM | [16] > 100 µM | [17] > 100 µM | [18] > 100 µM

Cn1c2ccccc2c2c(-c3ccccc3)[n+]3ccccc3nc21
inactive: [2] 31.9 µM | [3] 53.7 µM | [4] 23.2 µM | [5] 43.1 µM | [6] 34.8 µM | [7] 52.7 µM | [8] 23.3 µM | [9] 26.7 µM | [10] 22.5 µM | [11] 34 µM | [12] 50.9 µM | [13] 17.1 µM | [15] 18.4 µM | [16] 18.5 µM | [17] 98.6 µM

CN(c1ccccc1Cl)S(=O)(=O)c1ccccc1
inactive: [2] > 100 µM | [3] > 100 µM | [4] > 100 µM | [5] > 100 µM | [6] > 100 µM | [7] > 100 µM | [8] > 100 µM | [9] > 100 µM | [10] > 100 µM | [11] 51.8 µM | [12] > 100 µM | [13] > 100 µM | [15] > 100 µM | [16] > 100 µM | [17] > 100 µM | [18] > 100 µM

O=[N+]([O-])c1ccc(CSCc2ccc(Cl)cc2)cc1
inactive: [2] > 100 µM | [3] 78.3 µM | [4] > 100 µM | [5] > 100 µM | [6] > 100 µM | [7] > 100 µM | [8] > 100 µM | [9] > 100 µM | [10] > 100 µM | [11] > 100 µM | [12] > 100 µM | [13] > 100 µM | [14] > 100 µM | [15] > 100 µM | [16] > 100 µM | [17] > 100 µM | [18] > 100 µM

O=[As](O)(O)c1ccc(/N=N/c2ccc(O)cc2)cc1
inactive: [2] > 100 µM | [3] > 100 µM | [4] > 100 µM | [5] > 100 µM | [7] > 100 µM | [8] > 100 µM | [9] > 100 µM | [10] > 100 µM | [11] 5.69 µM | [12] > 100 µM | [13] > 100 µM | [14] > 100 µM | [16] > 100 µM | [17] > 100 µM | [18] > 100 µM
